Results: US4223021A, “Synthetic peptides having pituitary growth hormone releasing activity” (priority 1979, dated 1980)
Residues, ends and D or L forms follow the SMILES beside them.

Test system: pituitaries removed from 20 day old female rats
Assay: In vitro growth hormone release study (incubated rat pituitaries, GH radioimmunoassay)
Type: cell-based
Conditions: mean ± SEM, control -198± 85
Method: Female rats of the CD-1 strain were housed in a constant temperature room at 24° C. with 14 hours light and 10 hours darkness. The rats were fed Purina brand rat chow ab libitum.
All studies were started between 0800 and 1000 hours.
Pituitaries were removed from 20 day old female rats. Two pituitaries were incubated at 36° C. in 1 ml of lactated Ringer's solution in 10 ml polytetrafluoroethylene beakers in a Dubnoff Shaker (90 cycles/min.). The pituitaries were incubated a total of 4 hours (P1, P2, I3, and I4). After two successive one hour preincubation periods (P1, P2), the peptide was added to the incubation medium hourly for 2 hours (I3, I4).
This in vitro study was performed in triplicate and a standard radioimmunoassay of growth hormone present in the incubation medium was performed in duplicate. The hormonal activity was calculated as the difference (Δ) of growth hormone (GH) levels between I3, I4 and P2, i.e., (I3 -P2) and (I4 -P2). P values were calculated by Students' t test using six growth hormone values for each value recorded.
The growth hormone radioimmunoassay reagents were distributed by the National Institute of Arthritis and […] (NIAMDD) program. The growth hormone values were calculated in terms of nanograms (ng) of a rat standard with a growth hormone potency of 0.61 units/mg.

## NC(=O)[C@@H](Cc1ccccc1)NC(=O)[C@H](Cc1ccccc1)NC(=O)[C@@H](Cc1c[nH]c2ccccc12)NC(=O)CNC(=O)[C@@H](N)Cc1ccc(O)cc1 [H2 N-Tyr-Gly-D-Trp-Phe-D-Phe-CONH2] (HELM PEPTIDE1{Y.G.[dW].F.[dF].[am]}$$$$V2.0)
1μg peptide, P value not significant
  In vitro growth hormone release (ΔGH, I3/I4 minus P2): 200 ± 167 ngΔGH/ml incubation medium
10μg peptide, P value <0.001
  In vitro growth hormone release (ΔGH, I3/I4 minus P2): 1384 ± 120 ngΔGH/ml incubation medium
100μg peptide, P value <0.001
  In vitro growth hormone release (ΔGH, I3/I4 minus P2): 1196 ± 194 ngΔGH/ml incubation medium
